± gives the standard deviation of the averaged measurements.
Legend:
Assay in all cases: level (log10 ratio to DMSO vehicle control); higher = higher biomarker level / cell amount than vehicle control
[1] = compound: O=S(=O)(O)CCC(F)(F)C(F)(F)C(F)(F)C(F)(F)F [4:2 Fluorotelomer sulfonic acid]; conditions: in DMSO
Protocol: (§1)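 BioMAP Diversity Plus panel of 12 human primary cell co-culture systems (3C, 4H, LPS, SAg, BT, BF4T, BE3C, CASM3C, HDF3CGF, KF3CT, MyoF, Mphg). Compounds were added 1 h before stimulation and left for 24 h (MyoF 48 h; BT 72 h for soluble read-outs or 6 d for IgG). Biomarkers were read by ELISA, cytotoxicity by SRB, PBMC viability and proliferation by Alamar Blue. Each well value was divided by the mean of 8 DMSO control wells on the same plate and log10 transformed; duplicate blinded samples were tested at 4 concentrations.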

[2] = compound: C=CC(=O)OCC(F)(F)C(F)(F)C(F)(F)C(F)(F)COC(=O)C=C [1H,1H,6H,6H-Perfluorohexane-1,6-diol diacrylate]; conditions: 6700 nM; in DMSO
Protocol: as §1

[3] = compound: C=CC(=O)OCCC(F)(F)C(F)(F)C(F)(F)C(F)(F)C(F)(F)C(F)(F)C(F)(F)C(F)(F)F [8:2 Fluorotelomer acrylate]; conditions: in DMSO
Protocol: as §1

[4] = compound: OCCCCC(F)(F)C(F)(F)C(F)(F)C(F)(F)F [4:4 Fluorotelomer alcohol]; conditions: in DMSO
Protocol: as §1

[5] = compound: OCC(F)(F)C(F)(F)C(F)(F)C(F)(F)C(F)(F)C(F)(F)F [6:1 Fluorotelomer alcohol]; conditions: in DMSO
Protocol: as §1

[6] = compound: Cc1ccc(S(=O)(=O)OCC(F)(F)C(F)(F)C(F)(F)C(F)(F)C(F)(F)C(F)F)cc1 [1H,1H,7H-Perfluoroheptyl 4-methylbenzenesulfonate]; conditions: in DMSO
Protocol: as §1

[7] = compound: O=C(O)C(F)(F)C(F)(F)C(F)(F)C(F)(F)C(F)(F)C(F)(F)C(F)(F)F [Ammonium perfluorooctanoate]; conditions: in DMSO
Protocol: as §1

| Test System | level (log10) ([1]; 6700 nM) | level (log10) ([1]; 20000 nM) | level (log10) ([1]; 60000 nM) | level (log10) [2] | level (log10) ([3]; 6700 nM) | level (log10) ([3]; 20000 nM) | level (log10) ([3]; 60000 nM) | level (log10) ([4]; 6700 nM) | level (log10) ([4]; 20000 nM) | level (log10) ([4]; 60000 nM) | level (log10) ([5]; 6700 nM) | level (log10) ([5]; 20000 nM) | level (log10) ([5]; 60000 nM) | level (log10) ([6]; 6700 nM) | level (log10) ([6]; 20000 nM) | level (log10) ([6]; 60000 nM) | level (log10) ([7]; 6700 nM) | level (log10) ([7]; 20000 nM) | level (log10) ([7]; 60000 nM) |
| --- | --- | --- | --- | --- | --- | --- | --- | --- | --- | --- | --- | --- | --- | --- | --- | --- | --- | --- | --- |
| 3C:CCL2/MCP-1 | 0.0035 ± 0.023 | 0.003 ± 0.054 | 0.0065 ± 0.025 | 0.025 ± 0.044 | 0.005 ± 0.0042 | -0.0155 ± 0.0064 | 0.019 ± 0.016 | 0.004 ± 0.014 | -0.0205 ± 0.011 | -0.0105 ± 0.037 | -0.005 ± 0.011 | -0.005 ± 0.0014 | -0.007 ± 0.033 | -0.011 ± 0.0028 | -0.0075 ± 0.0021 | -0.0475 ± 0.011 | -0.002 ± 0.0099 | 0.004 ± 0.025 | 0.0315 ± 0.035 |
| 3C:CD54/ICAM-1 | 0.001 ± 0.0014 | -0.0125 ± 0.0021 | 0.0045 ± 0.012 | -0.028 ± 0.0085 | -0.009 ± 0.02 | -0.0205 ± 0.018 | 0.002 ± 0.0085 | 0 ± 0.037 | -0.017 ± 0.041 | -0.002 ± 0.047 | 0.004 | -0.001 ± 0.0071 | -0.0815 ± 0.12 | 0.0085 ± 0.0021 | -0.005 ± 0.0085 | -0.01 ± 0.02 | 0.004 ± 0.014 | 0.0065 ± 0.0064 | 0.0065 ± 0.00071 |
| 3C:CD62E/E-Selectin | -0.019 ± 0.011 | -0.0035 ± 0.019 | 0.0045 ± 0.018 | -0.066 ± 0.0057 | -0.0165 ± 0.011 | -0.0145 ± 0.022 | 0.001 ± 0.035 | -0.004 ± 0.0014 | -0.0055 ± 0.032 | 0.0105 ± 0.012 | -0.001 ± 0.0099 | -0.011 ± 0.0085 | 0.0125 ± 0.0078 | -0.0085 ± 0.005 | -0.03 ± 0.0057 | -0.081 ± 0.016 | 0.006 ± 0.011 | -0.007 ± 0.017 | 0.0085 ± 0.046 |
| 3C:CD106/VCAM-1 | -0.022 ± 0.028 | 0.006 ± 0.024 | 0.005 ± 0.021 | -0.058 ± 0.0071 | -0.0185 ± 0.015 | -0.027 ± 0.041 | -0.024 ± 0.05 | -0.01 ± 0.0057 | -0.01 ± 0.016 | -0.0015 ± 0.0035 | 0.006 ± 0.0071 | 0.013 ± 0.013 | 0.011 ± 0.021 | -0.0205 ± 0.0064 | -0.0085 ± 0.0064 | -0.037 ± 0.025 | 0.004 ± 0.03 | -0.0025 ± 0.03 | 0.019 ± 0.041 |
| 3C:CD141/Thrombomodulin | -0.014 ± 0.0028 | -0.005 ± 0.013 | -0.013 ± 0.044 | -0.079 ± 0.021 | -0.0015 ± 0.036 | -0.0295 ± 0.0035 | 0.023 ± 0.072 | -0.0225 ± 0.035 | -0.0265 ± 0.067 | -0.007 ± 0.076 | -0.0155 ± 0.018 | -0.0285 ± 0.0092 | -0.005 ± 0.02 | 0.008 ± 0.0028 | 0.021 ± 0.0014 | 0.0395 ± 0.00071 | -0.01 ± 0.017 | -0.0185 ± 0.012 | -0.0375 ± 0.032 |
| 3C:CD142/Tissue Factor | -0.007 ± 0.044 | 0.0225 ± 0.011 | 0.024 ± 0.025 | -0.134 ± 0.04 | 0.0065 ± 0.029 | 0.0115 ± 0.0035 | 0.0155 ± 0.021 | -0.0215 ± 0.025 | -0.018 ± 0.042 | 0.0155 ± 0.0092 | -0.007 ± 0.0014 | 0.004 ± 0.014 | 0.0005 ± 0.026 | 0.0065 ± 0.015 | -0.0025 ± 0.021 | -0.0445 ± 0.036 | -0.0145 ± 0.0035 | -0.0045 ± 0.0021 | -0.036 ± 0.017 |
| BE3C:Keratin 8/18 | 0.0065 ± 0.0021 | -0.002 ± 0.0014 | 0.0005 ± 0.0035 | 0.0075 ± 0.005 | -0.013 ± 0.0014 | -0.014 ± 0.0085 | 0.0085 ± 0.033 | -0.0025 ± 0.0035 | -0.012 ± 0.0042 | 0.0055 ± 0.015 | 0.0055 ± 0.036 | -0.0035 ± 0.057 | -0.0125 ± 0.071 | -0.006 ± 0.0085 | -0.006 ± 0.048 | -0.0065 ± 0.013 | -0.0195 ± 0.012 | -0.0215 ± 0.012 | -0.0225 ± 0.0035 |

Source: the supplement of paper PMC10331698
